Results reported in patent US10487117B2, “Antimicrobial peptide for nosocomial infections” (priority 2015, dated 2019).
Several values for one entry are separate records, joined by “and”; a condition that tells them apart may be missing. Equal entries are not always repeated. Residues, ends and D or L forms follow the SMILES beside them.

Assays:
[1] = system: established P. aeruginosa biofilms; assay: SYTOX Green membrane permeabilization assay on biofilm; type: cell-based, Pseudomonas aeruginosa; conditions: maximum percentage at final incubation time, 10% Triton X-100 reference
Experimental: (§1) Membrane permeabilization was followed using the method SYTOX Green Fluorescence membrane permeabilization assay. In the planktonic assay, bacterial cells were grown at 37° C. to an OD600=0.2, centrifuged at 5000×g for 5 min, and resuspended in 1×PBS to an OD600=0.2. An aliquot of 200 μl was then transferred to a microtiter plate. For biofilm assay, 24 h formed P. aeruginosa biofilm in a 96-well microtiter plate were washed three times with sterile PBS. SYTOX Green was added to a final concentration of 1 μM and incubated 15 min in darkness. Changes in the fluorescence were continuously recorded after addition of a serially diluted protein/peptides from 50 to 0.1 μM in a Victor3 plate reader. The peptide concentration required to achieve half of total and total membrane permeabilization achieved after 40 min was estimated from nonlinear regression analysis as previously described (Pulido D. et al. Antimicrob Agents Chemother 2013). A maximum reference value was taken for Triton X-100 at 10%.
(§2) Thereupon, the antimicrobial mechanism of action of the RNase 3 derived peptide on P. aeruginosa biofilms was further characterized with the depolarization and permeabilization assays. As applied for the P. aeruginosa planktonic culture, the fluorescent DisC3(5) assay was also used here in order to monitor the depolarization activity of the studied protein and peptides against established biofilms. Therefore, we have measured the half depolarization action (ED50), and the total depolarization activity expressed as a percentage (Table 7). […] Similar results were obtained for the Sytox Green permeabilization assay, where the total permeabilization effect was hindered for all the AMPs tested, and between two to ten times higher concentrations were required to achieve half of the biofilm cell permeabilizing effect in comparison to the planktonic cells.

planktonic P. aeruginosa [2] = type: cell-based, Pseudomonas aeruginosa; conditions: planktonic, 4 h
Experimental: The microbial cell viability was then assayed using the BacTiter-Glo™ luminescent kit. […] No cell reduction was detected for the peptide GL-13 even for the maximum concentration assayed (50 μM).
(§3) Bacterial viability was assayed using the BacTiter-Glo™ microbial cell viability kit. Briefly, protein/peptides were dissolved in 10 mM sodium phosphate, 0.1M buffer, pH 7.5, serially diluted from 50 to 0.1 μM and tested in a 96-well microtiter plate containing P. aeruginosa planktonic (OD600˜0.2) or 24 h formed biofilm for 4 h at 37° C. Fifty microliters of BacTiter-Glo™ reagent was added to each well according to the manufacturer's instructions and incubated at room temperature for 15 min. Luminescence was read on a Victor3 plate reader with a 3-s integration time. Fifty percent (ED50) and total inhibitory concentrations were calculated by fitting the data to a dose-response curve.

planktonic P. aeruginosa [3] = assay: SYTOX Green membrane permeabilization assay, planktonic; type: cell-based, Pseudomonas aeruginosa; conditions: 10% Triton X-100 as maximum reference
Experimental: Further insight into the membrane-permeabilizing effect of the selected AMPs against P. aeruginosa was evaluated by the Sytox Green assay. Local membrane disturbances allow the cell uptake of the fluorescent Sytox Green dye that subsequently stains the cell nucleic acids; the fluorescence increase is registered to monitor the cell membrane permeabilization. Therefore, the half permeabilization action (ED50) was measured, and the total permeabilization activity expressed as a percentage (Table 5). […] On the other hand, WY-12 and CA-M required a 6- to 7-fold greater concentration than RNase 3 to produce half of their permeabilizing effect.
as §1

[4] = Biofilm cell mortality, BacTiter-Glo luminescent assay; type: cell-based, Pseudomonas aeruginosa; conditions: 24 h formed biofilm; 4 h at 37° C.; 10% Triton X-100 as maximum reference; N.D. = not detected at 50 μM; read-out: Biofilm cell mortality (%max)
Experimental: as §3
As a first approach, the biofilm cell viability was monitored using the BacTiter-Glo™ luminescent assay. Therefore, the antimicrobial action of the studied AMPs was determined on already established P. aeruginosa biolfilms (FIG. 1 and Table 6). […] However, for all the active peptides, the concentrations needed to produce an equivalent effect in biofilms were between 2 to 10 times higher than in planktonic cultures. […] At the same time, we applied the crystal violet technique to assess the peptide ability to disperse pre-established P. aeruginosa biofilms.
(§4) Biofilm formation assay was modified from the previously described protocol (Huedo P. et al. 2014). Briefly, overnight cultures of P. aeruginosa were centrifuged at 5000×g for 5 min, washed and adjusted to an OD600=0.1 in tryptic soy medium (TSB). Two hundred microliters of the bacterial suspension were dispensed in each well of a polystyrene 96-well microtiter plate (Greiner Bio-one, France). The plate was incubated at 37° C. on an orbital shaker (30 rpm). The media was exchanged with fresh pre-warmed TSB after 4 h, in order to remove the non-attached bacteria. After 24 h incubation, the formation of biofilm was then evaluated using the crystal violet staining technique (Stepanovic S. et al. 2000). Briefly, the plates were washed three times with PBS, fixed at 60° C. for 1 h, and stained for 15 min with 200 μl of 0.1% crystal violet. After the dye was discarded, plates were rinsed in PBS and allowed to dry for 30 min at 37° C. Crystal violet was dissolved in 250 μl of 95% ethanol for 15 min, and the OD570 of the extracted dye was measured using a Victor3 plate reader (Perkin-Elmer, Waltham, Mass.).

[5] = system: established P. aeruginosa biofilms; assay: DiSC3(5) membrane depolarization assay on biofilm; type: cell-based, Pseudomonas aeruginosa; conditions: maximum percentage at final incubation time, 10% Triton X-100 reference
Experimental: Membrane depolarization was followed using the method described earlier (Torrent M. et al. 2008). Briefly, bacterial cells were grown at 37° C. to an OD600=0.2, centrifuged at 5000×g for 7 min, washed with 5 mM Hepes at pH 7.2 containing 20 mM glucose, and resuspended in 5 mM Hepes-KOH, 20 mM glucose, and 100 mM KCl at pH 7.2 to an OD600=0.05 and 200 μl were transferred to a microtiter plate for planktonic assays. For biofilm assay, 24 h formed P. aeruginosa biofilm in a 96-well microtiter plate were washed three times with sterile PBS. Afterwards P. aeruginosa biofilms were washed with 5 mM Hepes at pH 7.2 containing 20 mM glucose, and rinsed in 5 mM Hepes-KOH, 20 mM glucose, and 100 mM KCl at pH 7.2. In both cases, DiSC3(5) was added to a final concentration of 0.4 μM and changes in the fluorescence were continuously recorded after addition of peptides at 10 μM in a Victor3 plate reader. A maximum reference value for total depolarization is calculated for Triton X-100 at 10%. Alternatively, changes in the fluorescence were continuously recorded after addition of a serially diluted protein/peptides from 50 to 0.1 μM. The peptide concentration required to achieve half of total and total membrane depolarization after 40 min incubation time was estimated from nonlinear regression analysis as previously described (Torrent M. et al. 2010)
as §2

planktonic P. aeruginosa [6] = assay: Minimum agglutination concentration (MAC) assay; type: cell-based, Pseudomonas aeruginosa; conditions: 1 h at room temperature, mean ± SEM
Experimental: Bacterial agglutination of RNase 3 is important for the antimicrobial activity of the protein. Therefore, the peptide capability to agglutinate P. aeruginosa cells was assayed by the minimum agglutination concentration assay (MAC) (Table 3).
Bacterial cells were grown in LB at 37° C. to an OD600=0.2, centrifuged at 5000×g for 2 min and resuspended in 10 mM Tris-HCl buffer, 0.1 M NaCl, pH 7.5. An aliquot of 100 μl of the bacterial suspension was treated with increasing protein/peptide concentrations (from 0.01 to 50 μM) and incubated at room temperature for 1 h. The aggregation behavior was observed by visual inspection and the agglutinating activity is expressed as the minimum agglutinating concentration of the sample tested, as previously described (Torrent M. et al. 2012).

[7] = system: pre-established P. aeruginosa biofilm; assay: Biofilm eradication assay, crystal violet staining; type: cell-based, Pseudomonas aeruginosa
Experimental: Following, the biofilm eradication activity was determined (FIG. 1 and Table 6). […] Moreover, the biofilm eradication activity of all the tested reference peptides was well above the maximum concentration tested (50 μM), except for RN3(5-17P22-36) which was able to eradicate the biofilm close to 50 μM.
as §4
Biofilms were grown as above. Twenty-four hour formed P. aeruginosa biofilm was washed three times with sterile PBS, and rinsed with 10 mM sodium phosphate buffer pH 7.5. Each well was treated with increasing protein/peptide concentrations (from 0.01 to 50 μM) and incubated at 37° C. for 4 h. The biofilm eradication was then evaluated using the crystal violet staining technique (Stepanovic S. et al. 2000). The ability of the antimicrobial peptides to disperse and reduce the biofilm mass of preformed biofilms was calculated. The peptide concentration required to achieve total preformed biofilm eradication after 4 h incubation time was estimated. A maximum reference value was taken for Triton X-100 at 10%. The minimum biofilm eradication concentration (MBEC), defined as the protein/peptide concentration where the 99.9% of the biofilm mass is eradicated was estimated.

[8] = system: biofilm-producing microorganism; assay: Antimicrobial and antibiofilm activities of peptides from the design process; type: cell-based; conditions: peptide from the design process
Source text: Furthermore, even though the peptide has been designed with the RNAse 3 sequence as starting point, the peptide has surprising advantages in respect of the RNase 3 due to the specific deletion and selection of the amino acids conforming the peptide amino acid. […] This is the case of the peptide ECP(7-13)(32-36) with sequence SEQ ID NO: 7.

| Compound | Permeabilization Mean % ± SEM [1] | IC50 (planktonic P. aeruginosa [2]) | Permeabilization %max (planktonic P. aeruginosa [3]) | mortality [4] | Depolarization Mean % ± SEM [5] | MAC (minimum agglutinating activity) (planktonic P. aeruginosa [6]) | Biofilm eradication (%max) ([7]; 24 h formed biofilm, 4 h at 37° C., 10% Triton X-100 as maximum reference, listed as the peptide of the invention) | biofilm eradication concentration (MBEC) ([7]; total eradication of preformed biofilm, 4 h, max tested 50 μM) | antimicrobial and antibiofilm activities [8] |
| --- | --- | --- | --- | --- | --- | --- | --- | --- | --- |
| CC[C@H](C)[C@H](NC(=O)[C@H](C)NC(=O)[C@H](CCCNC(=N)N)NC(=O)[C@H](CCSC)NC(=O)[C@H](C)NC(=O)[C@@H](NC(=O)[C@@H](NC(=O)[C@H](CCCNC(=N)N)NC(=O)[C@@H]1CCCN1C(=O)[C@H](CO)NC(=O)[C@@H](NC(=O)[C@H](Cc1c[nH]cn1)NC(=O)[C@H](CCC(N)=O)NC(=O)[C@@H](NC(=O)[C@H](C)NC(=O)[C@H](Cc1ccccc1)NC(=O)[C@H](Cc1c[nH]c2ccccc12)NC(=O)[C@H](CCC(N)=O)NC(=O)[C@H](C)NC(=O)[C@H](CCCNC(=N)N)NC(=O)[C@@H](NC(=O)[C@H](Cc1ccccc1)NC(=O)[C@@H]1CCCN1C(=O)[C@@H](N)CCCNC(=N)N)[C@@H](C)O)[C@@H](C)CC)[C@@H](C)CC)[C@@H](C)O)[C@@H](C)CC)C(=O)N[C@@H](CC(N)=O)C(=O)N[C@@H](CC(N)=O)C(=O)N[C@@H](Cc1ccc(O)cc1)C(=O)N[C@@H](CCCNC(=N)N)C(=O)N[C@@H](Cc1c[nH]c2ccccc12)C(=O)N[C@@H](CCCNC(=N)N)C(N)=O [RN3(5-17P22-36)] (H-RPFTRAQWFAIQHISPRTIAMRAINNYRWR-NH2; N-terminus assumed) | 64.26 ± 5.44% | 1250 ± 100 nM | 63.63 ± 1.42% | 96.4 ± 2.41% | 73.51 ± 1.94% | 1.5 µM and 1.50 ± 0.08 µM | totally disperse the cell community layer | ~50 µM | – |
| ECP(7-13)(32-36): design-process peptide with sequence SEQ ID NO: 7, lacking the antimicrobial and antibiofilm activities (RAQWFAINYRWR; peptide ECP(7-13)(32-36)) | – | – | – | – | – | – | – | – | did not display the antimicrobial and antibiofilm activities |
